Experimental data from PMC8766184, “Molecular Docking, Synthesis, and Tyrosinase Inhibition Activity of Acetophenone Amide: Potential Inhibitor of Melanogenesis” (BioMed Research International, 2022).
Like-named read-outs stand apart in the source and are kept apart here.

Legend:
mushroom tyrosinase [1] = biological target: T1, mushroom tyrosinase (Agaricus bisporus, UniProt C7FF04); assay: In vitro mushroom tyrosinase inhibition assay (L-DOPA substrate, dopachrome absorbance); assay type: biochemical
T1 construct: purchased Sigma Aldrich
T1 sequence (C7FF04 1-392): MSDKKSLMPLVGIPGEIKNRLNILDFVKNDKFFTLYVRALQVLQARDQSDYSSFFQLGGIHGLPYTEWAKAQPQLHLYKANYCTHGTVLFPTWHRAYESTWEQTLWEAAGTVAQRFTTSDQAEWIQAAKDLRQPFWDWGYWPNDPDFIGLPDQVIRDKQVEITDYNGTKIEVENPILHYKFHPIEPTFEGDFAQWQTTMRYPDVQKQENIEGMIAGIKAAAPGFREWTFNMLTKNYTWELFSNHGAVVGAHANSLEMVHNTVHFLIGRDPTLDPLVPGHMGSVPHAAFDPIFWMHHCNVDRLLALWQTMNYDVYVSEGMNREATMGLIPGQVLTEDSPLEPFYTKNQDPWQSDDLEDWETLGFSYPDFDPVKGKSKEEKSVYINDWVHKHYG
Experimental: In vitro antityrosinase potential was determined following the method previously described with little modifications [33, 34]. Briefly, 140 μL of sodium phosphate buffer, 20 μL (30 U/mL) of the enzyme mushroom tyrosinase, and 20 μL of the tested compound were added in a well of a 96-well microplate. After a preincubation of 10 minutes at room temperature of 20 μL (0.85 mM), the substrate L-DOPA was added followed by an incubation of 20 minutes at the same temperature. Subsequently, the absorbance of the intermediate dopachrome was recorded by using an Opti Max tunable microplate reader (Sunnyvale, USA) at 472 nm. […] The negative inhibitor was a phosphate buffer without an inhibitor.

mushroom tyrosinase [2] = biological target: T1, mushroom tyrosinase; assay: Mushroom tyrosinase inhibitory kinetics (Lineweaver-Burk and Dixon plots); assay type: biochemical
Experimental: Various concentrations of the inhibitor 5c were among 0.00 to 0.013 μM and that of L-DOPA was 0.00 to 0.0064 μM during all kinetic assays. For preincubation and calculations, the same protocol was followed as described in in vitro tyrosinase inhibition assay and continuous monitoring at 30 s interval for 5 minutes after adding the enzyme tyrosinase, and the formation of dopachrome was measured at 475 nm. The enzyme inhibitory action and the kind of inhibition were determined by the Lineweaver-Burk and Dixon plots. 1/V (inverse of velocities) versus 1/[S] (inverse of substrate concentration) mM^−1 were plotted to determine inhibition constant Ki.
The enzyme inhibitory interaction mechanism of 3(a–e) and 5(a–e) with the binding site of mushroom tyrosinase was determined using Michaelis-Menten kinetic studies. […] A striking reduction in the reaction rate in the presence of inhibitors refers to a decrease in the final absorbance in comparison to control without inhibitors. The inhibitory index of all these tested compounds varied depending upon the position of various substituents and classes of compounds [27]. Inhibition kinetics was analyzed by the Lineweaver-Burk and Dixon plots.

Compound	IC50 (mushroom tyrosinase [1])	other results
CC(=O)c1cccc(NC(=O)COC(=O)C=Cc2ccccc2)c1 [Compound 5a, 2-(3-acetylphenylamino)-2-oxoethylcinnamate]	46.4 ± 5.8 µM	melting point: 159 to 161 °C
CC(=O)c1cccc(NC(=O)COC(=O)c2ccc(O)c(O)c2)c1 [Compound 3d, 2-(3-acetylphenylamino)-2-oxoethyl 3,4-dihydroxybenzoate]	128 ± 8.5 µM	
CC(=O)c1cccc(NC(=O)COC(=O)/C=C/c2ccc(O)cc2O)c1 [Compound 5c, 2-(3-acetylphenylamino)-2-oxoethyl(E)-3-(2,4-dihydroxyphenyl)acrylate]		IC50 (mushroom tyrosinase [1]; L-DOPA 0.85 mM substrate, enzyme 30 U/mL, absorbance at 472 nm, read-out: Mushroom tyrosinase inhibition IC50 ± SEM): 0.002 ± 0.0002 µM; Ki (mushroom tyrosinase [2]; Dixon plot, L-DOPA substrate, read-out: dissociation constant (Ki)): 0.0072 µM; type of inhibition (mushroom tyrosinase [2]; Lineweaver-Burk plot, L-DOPA substrate): competitive; reversibility of inhibition (mushroom tyrosinase [2]; remaining enzyme activity vs enzyme concentration at various inhibitor doses, L-DOPA): reversible
CC(=O)c1cccc(NC(=O)COC(=O)/C=C/c2ccc(O)cc2)c1 [Compound 5b, 2-(3-acetylphenylamino)-2-oxoethyl(E)-3-(4-hydroxyphenyl) acrylate]	309 ± 36.8 µM	
CC(=O)c1cccc(NC(=O)COC(=O)c2ccc(O)cc2O)c1 [Compound 3c, 2-(3-acetylphenylamino)-2-oxoethyl 2,4-dihydroxybenzoate]	27.4 ± 3.6 µM	
CC(=O)c1cccc(NC(=O)COC(=O)c2ccc(O)cc2)c1 [Compound 3b, 2-(3-acetylphenylamino)-2-oxoethyl-4-hydroxybenzoate]	288 ± 32.2 µM	
CC(=O)c1cccc(NC(=O)COC(=O)c2cccc(O)c2)c1 [Compound 3a, 2-(3-acetylphenylamino)-2-oxoethyl-3-hydroxybenzoate]	323 ± 16.9 µM	
CC(=O)c1cccc(NC(=O)COC(=O)/C=C/c2ccc(Cl)cc2)c1 [Compound 5d, 2-(3-acetylphenylamino)-2-oxoethyl(E)-3-(4-chlorophenyl)acrylate]	61.6 ± 11.4 µM	
CC(=O)c1cccc(NC(=O)COC(=O)c2cc(O)cc(O)c2)c1 [Compound 3e, 2-(3-acetylphenylamino)-2-oxoethyl 3,5-dihydroxybenzoate]	255 ± 14.2 µM	
